ChEMBL document CHEMBL3885861, “Open TG-GATES”

Species on record: Rattus norvegicus
Test: Open TG-GATES - Regimen: Daily Repeat
Assay type: toxicity, organism-based, Sprague-Dawley
Set-up: regimen Daily Repeat, gender Male, age 6 weeks
Settings: in vivo, po, 2 mg/kg, […], route gavage, dose level Low; for KIDNEY_TOTAL: tissue Kidney; for LIVER: tissue Liver; for A/G / ALP / ALT / AST / BUN / CRE / Ca / Cl / DBIL / GLC / IP / K / LDH / Na / PL / RALB / TBIL / TC / TG / TP / gamma-GTP: tissue Plasma

Q: For `CN(CCOc1ccc(CC2SC(=O)NC2=O)cc1)c1ccccn1.O=C(O)/C=C\C(=O)O` (configuration not stated) [ROSIGLITAZONE MALEATE], which Hb (tissue Blood, time 28 day) is on record?
A: The Hb was 14.4 g/dL.

Q: What about the Ht (tissue Blood, time 28 day) of the same compound?
A: The Ht was 44%.

Q: What about the Lym (tissue Blood, time 28 day) of the same compound?
A: Its Lym is 83.2%.

Q: What about the MCH (tissue Blood, time 28 day) of the same compound?
A: The MCH was 18.7 pg.

Q: What about the MCHC (tissue Blood, time 28 day) of the same compound?
A: The MCHC was 32.7%.

Q: And the MCV (tissue Blood, time 28 day)?
A: The MCV was 57.2 fL.

Q: And the Mono (tissue Blood, time 28 day)?
A: Its Mono is 3.8%.

Q: What about the Neu (tissue Blood, time 28 day) of the same compound?
A: The Neu was 12%.

Q: What about the PT (tissue Blood, time 28 day) of the same compound?
A: Its PT is 11.9 s.

Q: What about the Plat (tissue Blood, time 28 day) of the same compound?
A: Its Plat is 108.5 x10_4/uL.

Q: What about the RBC (tissue Blood, time 28 day) of the same compound?
A: The RBC was 769.2 x10_4/ul.

Q: And the Ret (tissue Blood, time 28 day)?
A: The Ret was 2.2%.

Q: And the WBC (tissue Blood, time 28 day)?
A: The WBC was 93.8 x10_2/uL.

Q: What about the KIDNEY_TOTAL (time 7 day) of the same compound?
A: Its KIDNEY_TOTAL is 0.7 g.

Q: What about the KIDNEY_TOTAL (time 14 day) of the same compound?
A: The KIDNEY_TOTAL was 0.8 g.

Q: What about the KIDNEY_TOTAL (time 28 day) of the same compound?
A: The KIDNEY_TOTAL was 0.7 g.

Q: And the LIVER (time 7 day)?
A: The LIVER was 12.8 g.

Q: And the LIVER (time 14 day)?
A: Its LIVER is 15.1 g.

Q: What about the LIVER (time 28 day) of the same compound?
A: Its LIVER is 16.8 g.

Q: And the A/G (time 7 day)?
A: The A/G was 2.

Q: What about the ALP (time 7 day) of the same compound?
A: Its ALP is 1242 IU/L.

Q: What about the ALT (time 7 day) of the same compound?
A: Its ALT is 32.4 IU/L.

Q: And the AST (time 7 day)?
A: The AST was 62.2 IU/L.

Q: And the BUN (time 7 day)?
A: The BUN was 19 mg/dL.

Q: And the CRE (time 7 day)?
A: The CRE was 0.5 mg/dL.

Q: What about the Ca (time 7 day) of the same compound?
A: Its Ca is 11.4 mg/dL.

Q: And the Cl (time 7 day)?
A: Its Cl is 104.6 meq/L.

Q: And the DBIL (time 7 day)?
A: Its DBIL is 0.012 mg/dL.

Q: What about the GLC (time 7 day) of the same compound?
A: The GLC was 183.4 mg/dL.

Q: And the IP (time 7 day)?
A: The IP was 7.2 mg/dL.

Q: And the K (time 7 day)?
A: The K was 4.3 meq/L.

Q: What about the LDH (time 7 day) of the same compound?
A: Its LDH is 118 IU/L.

Q: And the Na (time 7 day)?
A: Its Na is 140.8 meq/L.

Q: What about the PL (time 7 day) of the same compound?
A: The PL was 144.6 mg/dL.

Q: What about the RALB (time 7 day) of the same compound?
A: The RALB was 3.8 g/dL.

Q: And the TBIL (time 7 day)?
A: The TBIL was 0.034 mg/dL.

Q: What about the TC (time 7 day) of the same compound?
A: The TC was 73.6 mg/dL.

Q: What about the TG (time 7 day) of the same compound?
A: Its TG is 100.6 mg/dL.

Q: And the TP (time 7 day)?
A: The TP was 5.7 g/dL.

Q: What about the gamma-GTP (time 7 day) of the same compound?
A: Its gamma-GTP is 0.6 IU/L.

Q: And the A/G (time 14 day)?
A: The A/G was 2.1.

Q: What about the ALP (time 14 day) of the same compound?
A: The ALP was 1340.2 IU/L.

Q: What about the ALT (time 14 day) of the same compound?
A: Its ALT is 35.2 IU/L.

Q: And the AST (time 14 day)?
A: Its AST is 64.8 IU/L.

Q: What about the BUN (time 14 day) of the same compound?
A: Its BUN is 18 mg/dL.

Q: What about the CRE (time 14 day) of the same compound?
A: Its CRE is 0.4 mg/dL.

Q: What about the Ca (time 14 day) of the same compound?
A: The Ca was 11.2 mg/dL.

Q: What about the Cl (time 14 day) of the same compound?
A: Its Cl is 105.6 meq/L.

Q: What about the DBIL (time 14 day) of the same compound?
A: The DBIL was 0.01 mg/dL.

Q: What about the GLC (time 14 day) of the same compound?
A: The GLC was 189.8 mg/dL.

Q: What about the IP (time 14 day) of the same compound?
A: The IP was 7.8 mg/dL.

Q: What about the K (time 14 day) of the same compound?
A: The K was 4.4 meq/L.

Q: And the LDH (time 14 day)?
A: Its LDH is 92.2 IU/L.

Q: And the Na (time 14 day)?
A: Its Na is 143.2 meq/L.

Q: And the PL (time 14 day)?
A: The PL was 142.2 mg/dL.

Q: And the RALB (time 14 day)?
A: The RALB was 3.8 g/dL.

Q: And the TBIL (time 14 day)?
A: Its TBIL is 0.032 mg/dL.

Q: And the TC (time 14 day)?
A: Its TC is 70.4 mg/dL.

Q: What about the TG (time 14 day) of the same compound?
A: Its TG is 110 mg/dL.

Q: And the TP (time 14 day)?
A: The TP was 5.7 g/dL.

Q: And the gamma-GTP (time 14 day)?
A: The gamma-GTP was 1 IU/L.

Q: What about the A/G (time 28 day) of the same compound?
A: Its A/G is 2.

Q: And the ALP (time 28 day)?
A: The ALP was 1172.5 IU/L.

Q: What about the ALT (time 28 day) of the same compound?
A: Its ALT is 34 IU/L.

Q: And the AST (time 28 day)?
A: Its AST is 62.8 IU/L.

Q: What about the BUN (time 28 day) of the same compound?
A: The BUN was 18.2 mg/dL.

Q: And the CRE (time 28 day)?
A: The CRE was 0.4 mg/dL.

Q: What about the Ca (time 28 day) of the same compound?
A: The Ca was 10.6 mg/dL.

Q: And the Cl (time 28 day)?
A: Its Cl is 105 meq/L.

Q: What about the DBIL (time 28 day) of the same compound?
A: Its DBIL is 0.01 mg/dL.

Q: And the GLC (time 28 day)?
A: The GLC was 185.2 mg/dL.

Q: What about the IP (time 28 day) of the same compound?
A: Its IP is 6.4 mg/dL.

Q: And the K (time 28 day)?
A: Its K is 4.2 meq/L.

Q: What about the LDH (time 28 day) of the same compound?
A: Its LDH is 90.2 IU/L.

Q: What about the Na (time 28 day) of the same compound?
A: The Na was 141.2 meq/L.

Q: What about the PL (time 28 day) of the same compound?
A: Its PL is 119 mg/dL.

Q: What about the RALB (time 28 day) of the same compound?
A: The RALB was 3.9 g/dL.

Q: And the TBIL (time 28 day)?
A: Its TBIL is 0.035 mg/dL.

Q: And the TC (time 28 day)?
A: The TC was 54.8 mg/dL.

Q: And the TG (time 28 day)?
A: The TG was 126.5 mg/dL.

Q: What about the TP (time 28 day) of the same compound?
A: Its TP is 5.9 g/dL.

Q: And the gamma-GTP (time 28 day)?
A: The gamma-GTP was 0 IU/L.
